Values joined by “and” are separate entries in the source; they are usually repeats but may differ in a detail not shown here. Equal values may be shown once. Read-outs that look alike come from different tables or passages of the source.
What was measured:
[1] = test system: human colon cancer HCT116; assay: Cancer cell line growth inhibition assay (DNA content); assay type: cell-based; settings: for Cellular IC50s HCT-116: Table 1, triazole derivatives, one cell printed for both cell lines; for IC50: HCT-116; for activity in cell growth inhibition: HCT116, statement in text
Protocol: (§1) The growth inhibition assay was performed in the Preclinical Drug Testing Laboratory of the Case Comprehensive Cancer Center using a standardized protocol. Cell lines (human colon cancer HCT116 and human pancreas ductal adenocarcinoma Panc cells) were maintained in standard growth media; RPMI1640+10% FBS+2 mM glutamine+100 U/ml penicillin, 100 ug/ml streptomycin and shown to be negative for mycoplasma contamination using the MycoAlert™ Mycoplasma Detection kit (Lonza, Basel, Switzerland). Cell identity was verified by Short Tandem Repeat (STR) testing performed using the Promega StemElite kit, in the Genetic Resources Core Facility (GRCF) at Johns Hopkins University.
(§2) For growth inhibition assays, cells were harvested by trypsinization and seeded into 96-well tissue culture plates at 2500 cells/mL. The following day an equal volume of 2×-drug containing medium was added to each well. The cells were cultured for 3 additional days at 37° C. in a 5% CO2 humidified incubator. Cell growth was assessed by measuring DNA content per well using the method of Labarca and Paigen. Dye fluorescence was measured in a Perkin-Elmer 1420 Victor 3 Multilabel plate reader using 355 nm excitation and 460 nm emission.

[2] = test system: human pancreas ductal adenocarcinoma Panc cells (Panc1); assay: as above; assay type: cell-based; settings: for Cellular IC50s Panc 1: Table 1, triazole derivatives, one cell printed for both cell lines; for activity in cell growth inhibition: Panc1, statement in text
Protocol: as §1, §2

[3] = test system: normal mobilized peripheral blood progenitor cells; settings: previously characterized; cited from earlier work
[4] = target: T1, hRRM1 hexamers (Homo sapiens, UniProt P23921); settings: background statement; cited from earlier work
T1 sequence (P23921 1-792): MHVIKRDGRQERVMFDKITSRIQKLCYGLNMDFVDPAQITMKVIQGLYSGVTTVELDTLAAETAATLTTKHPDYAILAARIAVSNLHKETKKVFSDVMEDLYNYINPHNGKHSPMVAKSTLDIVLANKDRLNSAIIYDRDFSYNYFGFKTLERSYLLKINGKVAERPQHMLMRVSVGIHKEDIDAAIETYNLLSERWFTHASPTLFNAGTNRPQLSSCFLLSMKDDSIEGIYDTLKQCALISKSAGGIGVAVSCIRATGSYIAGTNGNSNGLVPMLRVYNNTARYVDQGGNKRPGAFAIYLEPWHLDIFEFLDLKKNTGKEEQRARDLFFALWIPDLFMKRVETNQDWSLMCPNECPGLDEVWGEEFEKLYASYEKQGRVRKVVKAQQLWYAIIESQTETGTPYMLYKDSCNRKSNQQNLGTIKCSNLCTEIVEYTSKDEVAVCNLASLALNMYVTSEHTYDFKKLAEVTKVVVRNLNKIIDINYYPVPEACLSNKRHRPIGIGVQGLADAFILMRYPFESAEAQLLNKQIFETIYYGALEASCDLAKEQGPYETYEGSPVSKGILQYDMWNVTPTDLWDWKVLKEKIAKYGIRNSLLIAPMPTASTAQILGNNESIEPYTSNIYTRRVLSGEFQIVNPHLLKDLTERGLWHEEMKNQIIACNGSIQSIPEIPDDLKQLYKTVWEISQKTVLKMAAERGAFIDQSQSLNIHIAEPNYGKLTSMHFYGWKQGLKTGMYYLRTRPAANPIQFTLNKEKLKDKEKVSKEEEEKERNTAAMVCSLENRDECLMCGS

[5] = Homo sapiens, Calcusyn fit, runs Oct. 21 and Oct. 24, 2016, read-out: Dm
[6] = Homo sapiens, PANC-1, Panc1, Calcusyn fit, runs Oct. 21 and Oct. 24, 2016, read-out: Dm
[7] = Homo sapiens, Table 2, oxadiazoles, read-out: Cellular IC50s HCT-116
[8] = Homo sapiens, PANC-1, Table 2, oxadiazoles, read-out: Cellular IC50s Panc 1

IC50 [1, 5] [nM]	IC50 [2, 6] [nM]	SMILES	Cellular IC50s HCT-116 [1]	Cellular IC50s Panc 1 [2]	further results
		COc1ccc2cc(-c3cn(Cc4ccccc4)nn3)ccc2c1	No cytotoxicity	No cytotoxicity	
		COc1ccc2cc(-c3cn(CCc4ccc(O)cc4)nn3)ccc2c1	No cytotoxicity	No cytotoxicity	
		O=C(O)CC(c1ccccc1)n1cc(-c2c(O)ccc3ccccc23)nn1 (stereo not drawn)	No cytotoxicity	No cytotoxicity	
		C[C@@H]([C@H](O)c1ccccc1)n1cc(-c2c(O)ccc3ccccc23)nn1	No cytotoxicity	No cytotoxicity	
		Cc1c(-n2cc(-c3c(O)ccc4ccccc34)nn2)c(=O)n(-c2ccccc2)n1C	No cytotoxicity	No cytotoxicity	
		O=C(NN=Cc1c(O)ccc2ccccc12)c1ccccc1O [NSAAH, Naphthyl Salicyl Acyl Hydrazone, reference compound]			IC50 ([1]; Calcusyn fit, runs Oct. 21 and Oct. 24, 2016, listed as NSAAH (new), read-out: Dm): 176 nM; IC50 ([1]; Calcusyn fit, runs Oct. 21 and Oct. 24, 2016, listed as NSAAH (old), read-out: Dm): 234 nM and 166 nM; IC50 ([2]; Panc1, Calcusyn fit, runs Oct. 21 and Oct. 24, 2016, listed as NSAAH (new), read-out: Dm): 850 nM; IC50 ([2]; Panc1, Calcusyn fit, runs Oct. 21 and Oct. 24, 2016, listed as NSAAH (old), read-out: Dm): 550 nM and 480 nM; cytotoxicity [3]: little measurable cytotoxicity
> 10000	> 10000	O=C(c1c(O)ccc2ccccc12)n1cc(-c2cccnc2)nn1 [NSAAT F]			
6890	53600	Oc1ccccc1-c1nnc(-c2c(O)ccc3ccccc23)o1 [Oxa A]			activity in cell growth inhibition [1]: low micromolar range; IC50 [1, 7]: 3200 nM; IC50 [2, 8]: 7000 nM; activity in cell growth inhibition [2]: low micromolar range
1410	1920	Oc1ccc2ccccc2c1-c1nnc(-c2cccnc2)o1 [Oxa F]			activity in cell growth inhibition [1]: low micromolar range; IC50 [1, 7]: 1200 nM; IC50 [2, 8]: 2500 nM; activity in cell growth inhibition [2]: low micromolar range
		Nc1nc(Cl)nc2c1ncn2[C@@H]1O[C@H](CO)[C@@H](O)[C@@H]1F [clofarabine, 2′-fluro-2′-deoxyarabinofuranosyl-2-chloroadenine]			binding affinity [4]: nanomolar affinity
		NC1(c2cn([C@H](c3ccccc3)[C@H](O)c3ccccc3)nn2)CCCCC1 [drawing 59]	No cytotoxicity	No cytotoxicity	
		O=C(c1c(O)ccc2ccccc12)n1cc(-c2cccnc2)nn1 [drawing 60]	No cytotoxicity	No cytotoxicity	

SMILES	IC50 [1, 5] [nM]	IC50 [2, 6] [nM]	Cellular IC50s HCT-116 [1]	Cellular IC50s Panc 1 [2]	further results
NC1(c2cn([C@H](c3ccccc3)[C@H](O)c3ccccc3)nn2)CCCCC1 [NSAAT E]	66800	> 10000			
